In patent US8785594B2, “Glycoproteins and glycosylated cells and a method for the preparation of the same” (Glycom A/S, priority 2007, dated 2014):

How the values were obtained:
B16.BL6 melanoma cells [1] = test: Cell concentration and viability after conjugation, trypan blue (Example 15); assay type: cell-based
Experimental: (§1) Twelve flasks (300 cm^2) (TPP, Trasadingen Switzerland) of confluent B16.BL6 melanoma cells grown in DMEM containing 10% fetal calf serum (without P/S) at 37.5° C. in 5% CO2 was used for this experiment. Growth medium was removed from the cells and 20 mL of HBSS containing D-glucose (without Mg^2+ and Ca^2+) (Gibco, Invitrogen, Taastrup, Denmark) was added to the cells and immediately removed again. Another 10 mL of HBSS containing D-glucose (without Mg^2+ and Ca^2+) was added and removed, before cells were harvested with Cell Dissociation Solution C5914 (Sigma-aldrich, Saint Louis, Mo.) (10 mL per flask) and transferred to 50 mL tubes (TPP, Trasadingen Switzerland). The cells were centrifuged for 3 minutes at 300 G at 20° C. and the supernatant was discarded. Subsequently, cells were washed twice in HBSS containing D-glucose (without Mg^2+ and Ca^2+), centrifuged as above and resuspended in HBSS containing D-glucose (without Mg^2+ and Ca^2+). The concentration of the cell suspension was determined.
Radioactive labelled and regular alpha-Gal trisaccharide-carbamate (9) probe (labeled on the cyclic carbamate carbon) was dissolved in HBSS containing D-glucose (without Mg^2+ and Ca^2+) (Gibco Invitrogen, Taastrup, Denmark) and passed through sterile filters (0.2 μm Supor® Acrodisc® 13, Gelman Sciences, Ann Arbor, Mich.). Eight different concentrations of radioactive labelled alpha-Gal trisaccharide-carbamate (9) (1 μg, 10 μg, 100 μg, 1 mg, 5 mg, 10 mg, 15 mg and 20 mg) and […] concentrations of regular “Glycom conjugate” (10 μg, 100 μg, 1 mg, 5 mg, 10 mg, 15 mg and 20 mg) were used. Twelve flasks (300 cm^2) (TPP, Trasadingen Switzerland) were prepared, each containing 10×10^6 B16.BL6 cells, for conjugation with the radioactive labelled trisaccharide probe, and 8 flasks (150 cm^2) (TPP, Trasadingen Switzerland) were prepared, each containing 5×10^6 B16.BL6 cells, for conjugation with the non-radioactive conjugate. The Glycom conjugate was added and the total volume was adjusted with HBSS containing D-glucose (without Mg^2+ and Ca^2+) so that each large flask (300 cm^2) contained a final volume of 20 mL and each medium flask (150 cm^2) contained a final volume of 10 mL. Cells were incubated with the “Glycom conjugate” for 1.5 hours at 37° C. After conjugation, the supernatant from each flask was transferred to separate 50 mL tubes (TPP, Trasadingen Switzerland). The cells were harvested with Cell Dissociation Solution (10 mL per large flask and 5 mL per medium flask) (Sigma-aldrich, Saint Louis, Mo.) and transferred to the 50 mL tubes containing the supernatant. The cells were centrifuged for 5 minutes at 300 G at 20° C. and resuspended in 5 mL of PBS (without Mg^2+ and Ca^2+). […]

B16.BL6 melanoma cells [2] = test: Cell concentration and viability after conjugation, trypan blue (Example 14); assay type: cell-based
Experimental: as §1, with “Nine flasks” for “Twelve flasks”, “CO2 were” for “CO2 was”
Radioactive labelled and regular trisaccharide probe was dissolved in HBSS containing D-glucose (without Mg^2+ and Ca^2+) (Gibco Invitrogen, Taastrup, Denmark) and passed through sterile filters (0.2 μm Supor® Acrodisc® 13, Gelman Sciences, Ann Arbor, Mich.). Four different concentrations of each “Glycom conjugate” (25 mg, 5 mg, 1 mg and 0.1 mg) were made. Twelve flasks (150 cm^2) (TPP, Trasadingen Switzerland) were prepared each containing a total of 10×10^6 B16.BL6 cells. The trisaccharide probe was added and the total volume was adjusted to 20 mL with HBSS containing D-glucose (without Mg^2+ and Ca^2+). The cells were incubated with the “Glycom conjugate” for 1.5 hours at 37° C. After conjugation, the supernatant from each flask was transferred to separate 50 mL tubes (TPP, Trasadingen Switzerland). The cells were harvested with Cell Dissociation Solution C5914 (5 mL per flask) (Sigma-Aldrich, Saint Louis, Mo. and transferred to the 50 mL tubes containing the supernatant. The cells were centrifuged for 3 minutes at 300 G at 20° C. and resuspended in 5 mL of PBS (without Mg^2+ and Ca^2+). This was repeated 3 times before cell concentration and viability was determined by microscopical evaluation of trypan blue stained cell samples.

[3] = reaction 2, regular conjugate 20 mg, 5×10^6 cells, 1.5 hours, after washing once
[4] = reaction 3, regular conjugate 15 mg
[5] = reaction 4, regular conjugate 10 mg
[6] = reaction 5, regular conjugate 5 mg
[7] = reaction 6, regular conjugate 1 mg
[8] = reaction 7, regular conjugate 100 μg
[9] = reaction 8, regular conjugate 10 μg
[10] = regular conjugate 25 mg, 10×10^6 cells, 1.5 hours
[11] = reaction C, radioactive labelled conjugate 20 mg, 10×10^6 cells, 1.5 hours, after washing 4 times
[12] = reaction D, radioactive labelled conjugate 15 mg
[13] = reaction E, radioactive labelled conjugate 10 mg
[14] = reaction F, radioactive labelled conjugate 5 mg
[15] = reaction G, radioactive labelled conjugate 1 mg
[16] = reaction H, radioactive labelled conjugate 100 μg
[17] = reaction I, radioactive labelled conjugate 10 μg
[18] = reaction J, radioactive labelled conjugate 1 μg
[19] = radioactive labelled conjugate 0.1 mg
[20] = radioactive labelled conjugate 1 mg
[21] = radioactive labelled conjugate 5 mg, cells from supernatant only
[22] = radioactive labelled conjugate 25 mg, attached cells only

Compound: O=C1N[C@@H]2O[C@H](CO)[C@@H](O[C@@H]3O[C@H](CO)[C@H](O)[C@H](O[C@H]4O[C@H](CO)[C@H](O)[C@H](O)[C@H]4O)[C@H]3O)[C@H](O)[C@H]2O1 [Compound 9, alpha-Gal trisaccharide-carbamate]
- Cell concentration (B16.BL6 melanoma cells [1]; [3]): 4.2 × 10^5 cells/mL
- Cells harvested (B16.BL6 melanoma cells [1]; [3]): 1.1 × 10^6
- Cells harvested (percent) (B16.BL6 melanoma cells [1]; [3]): 21%
- Viability (B16.BL6 melanoma cells [1]; [3]): 85.7%
- Cell concentration (B16.BL6 melanoma cells [1]; [4]): 6.0 × 10^5 cells/mL
- Cells harvested (B16.BL6 melanoma cells [1]; [4]): 1.5 × 10^6
- Cells harvested (percent) (B16.BL6 melanoma cells [1]; [4]): 30%
- Viability (B16.BL6 melanoma cells [1]; [4]): 80.0%
- Cell concentration (B16.BL6 melanoma cells [1]; [5]): 2.8 × 10^5 cells/mL
- Cells harvested (B16.BL6 melanoma cells [1]; [5]): 0.7 × 10^6
- Cells harvested (percent) (B16.BL6 melanoma cells [1]; [5]): 14%
- Viability (B16.BL6 melanoma cells [1]; [5]): 71.4%
- Cell concentration (B16.BL6 melanoma cells [1]; [6]): 4.4 × 10^5 cells/mL
- Cells harvested (B16.BL6 melanoma cells [1]; [6]): 1.1 × 10^6
- Cells harvested (percent) (B16.BL6 melanoma cells [1]; [6]): 22%
- Viability (B16.BL6 melanoma cells [1]; [6]): 81.8%
- Cell concentration (B16.BL6 melanoma cells [1]; [7]): 4.2 × 10^5 cells/mL
- Cells harvested (B16.BL6 melanoma cells [1]; [7]): 1.1 × 10^6
- Cells harvested (percent) (B16.BL6 melanoma cells [1]; [7]): 21%
- Viability (B16.BL6 melanoma cells [1]; [7]): 66.7%
- Cell concentration (B16.BL6 melanoma cells [1]; [8]): 6.0 × 10^5 cells/mL
- Cells harvested (B16.BL6 melanoma cells [1]; [8]): 1.5 × 10^6
- Cells harvested (percent) (B16.BL6 melanoma cells [1]; [8]): 30%
- Viability (B16.BL6 melanoma cells [1]; [8]): 60.1%
- Cell concentration (B16.BL6 melanoma cells [1]; [9]): 4.2 × 10^5 cells/mL
- Cells harvested (B16.BL6 melanoma cells [1]; [9]): 1.1 × 10^6
- Cells harvested (percent) (B16.BL6 melanoma cells [1]; [9]): 21%
- Viability (B16.BL6 melanoma cells [1]; [9]): 57.1%
- Cell concentration (B16.BL6 melanoma cells [2]; regular conjugate 0.1 mg): 7.4 × 10^5
- Cells harvested (B16.BL6 melanoma cells [2]; regular conjugate 0.1 mg): 3.7 × 10^6
- Cells harvested (percent) (B16.BL6 melanoma cells [2]; regular conjugate 0.1 mg): 37%
- Viability (B16.BL6 melanoma cells [2]; regular conjugate 0.1 mg): 67.6%
- Cell concentration (B16.BL6 melanoma cells [2]; regular conjugate 1 mg): 13.4 × 10^5
- Cells harvested (B16.BL6 melanoma cells [2]; regular conjugate 1 mg): 6.7 × 10^6
- Cells harvested (percent) (B16.BL6 melanoma cells [2]; regular conjugate 1 mg): 67%
- Viability (B16.BL6 melanoma cells [2]; regular conjugate 1 mg): 79.1%
- Cell concentration (B16.BL6 melanoma cells [2]; regular conjugate 5 mg): 7.0 × 10^5
- Cells harvested (B16.BL6 melanoma cells [2]; regular conjugate 5 mg): 3.5 × 10^6
- Cells harvested (percent) (B16.BL6 melanoma cells [2]; regular conjugate 5 mg): 35%
- Viability (B16.BL6 melanoma cells [2]; regular conjugate 5 mg): 91.4%
- Cell concentration (B16.BL6 melanoma cells [2]; [10]): 9.0 × 10^5
- Cells harvested (B16.BL6 melanoma cells [2]; [10]): 4.5 × 10^6
- Cells harvested (percent) (B16.BL6 melanoma cells [2]; [10]): 45%
- Viability (B16.BL6 melanoma cells [2]; [10]): 77.8%

Compound: O=[13C]1N[C@@H]2O[C@H](CO)[C@@H](O[C@@H]3O[C@H](CO)[C@H](O)[C@H](O[C@H]4O[C@H](CO)[C@H](O)[C@H](O)[C@H]4O)[C@H]3O)[C@H](O)[C@H]2O1 [radioactive labelled conjugate]
- Cell concentration (B16.BL6 melanoma cells [1]; [11]): 6.1 × 10^6 cells/mL
- Cells harvested (B16.BL6 melanoma cells [1]; [11]): 2.7 × 10^6
- Cells harvested (percent) (B16.BL6 melanoma cells [1]; [11]): 27.5%
- Viability (B16.BL6 melanoma cells [1]; [11]): 82.0%
- Cell concentration (B16.BL6 melanoma cells [1]; [12]): 4.3 × 10^6 cells/mL
- Cells harvested (B16.BL6 melanoma cells [1]; [12]): 1.9 × 10^6
- Cells harvested (percent) (B16.BL6 melanoma cells [1]; [12]): 19.4%
- Viability (B16.BL6 melanoma cells [1]; [12]): 88.9%
- Cell concentration (B16.BL6 melanoma cells [1]; [13]): 12 × 10^6 cells/mL
- Cells harvested (B16.BL6 melanoma cells [1]; [13]): 5.4 × 10^6
- Cells harvested (percent) (B16.BL6 melanoma cells [1]; [13]): 54.0%
- Viability (B16.BL6 melanoma cells [1]; [13]): 86.7%
- Cell concentration (B16.BL6 melanoma cells [1]; [14]): 5.2 × 10^6 cells/mL
- Cells harvested (B16.BL6 melanoma cells [1]; [14]): 2.3 × 10^6
- Cells harvested (percent) (B16.BL6 melanoma cells [1]; [14]): 23.4%
- Viability (B16.BL6 melanoma cells [1]; [14]): 82.7%
- Cell concentration (B16.BL6 melanoma cells [1]; [15]): 5.9 × 10^6 cells/mL
- Cells harvested (B16.BL6 melanoma cells [1]; [15]): 2.7 × 10^6
- Cells harvested (percent) (B16.BL6 melanoma cells [1]; [15]): 26.6%
- Viability (B16.BL6 melanoma cells [1]; [15]): 91.5%
- Cell concentration (B16.BL6 melanoma cells [1]; [16]): 3.8 × 10^6 cells/mL
- Cells harvested (B16.BL6 melanoma cells [1]; [16]): 1.7 × 10^6
- Cells harvested (percent) (B16.BL6 melanoma cells [1]; [16]): 17.1%
- Viability (B16.BL6 melanoma cells [1]; [16]): 81.6%
- Cell concentration (B16.BL6 melanoma cells [1]; [17]): 6.2 × 10^6 cells/mL
- Cells harvested (B16.BL6 melanoma cells [1]; [17]): 2.8 × 10^6
- Cells harvested (percent) (B16.BL6 melanoma cells [1]; [17]): 27.9%
- Viability (B16.BL6 melanoma cells [1]; [17]): 82.3%
- Cell concentration (B16.BL6 melanoma cells [1]; [18]): 5.0 × 10^6 cells/mL
- Cells harvested (B16.BL6 melanoma cells [1]; [18]): 2.3 × 10^6
- Cells harvested (percent) (B16.BL6 melanoma cells [1]; [18]): 22.5%
- Viability (B16.BL6 melanoma cells [1]; [18]): 84.0%
- Cell concentration (B16.BL6 melanoma cells [2]; [19]): 13.8 × 10^5
- Cells harvested (B16.BL6 melanoma cells [2]; [19]): 6.9 × 10^6
- Cells harvested (percent) (B16.BL6 melanoma cells [2]; [19]): 69%
- Viability (B16.BL6 melanoma cells [2]; [19]): 91.3%
- Cell concentration (B16.BL6 melanoma cells [2]; [20]): 14.8 × 10^5
- Cells harvested (B16.BL6 melanoma cells [2]; [20]): 7.4 × 10^6
- Cells harvested (percent) (B16.BL6 melanoma cells [2]; [20]): 74%
- Viability (B16.BL6 melanoma cells [2]; [20]): 93.2%
- Cell concentration (B16.BL6 melanoma cells [2]; [21]): 10.8 × 10^5
- Cells harvested (B16.BL6 melanoma cells [2]; [21]): 5.4 × 10^6
- Cells harvested (percent) (B16.BL6 melanoma cells [2]; [21]): 54%
- Viability (B16.BL6 melanoma cells [2]; [21]): 81.5%
- Cell concentration (B16.BL6 melanoma cells [2]; [22]): 2.0 × 10^5
- Cells harvested (B16.BL6 melanoma cells [2]; [22]): 1.0 × 10^6
- Cells harvested (percent) (B16.BL6 melanoma cells [2]; [22]): 10%
- Viability (B16.BL6 melanoma cells [2]; [22]): 90.0%
